In ChEMBL document CHEMBL1201862, “PubChem BioAssay data set” (2004):
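Five concentrations, 48 hours, 96-well plates. Abbreviation: GI50, concentration required for 50% inhibition of growth.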 The source made the active and inactive calls. Rule as the data show it: active = GI50 up to about 1.1 µM and inactive = higher.

Assays:
Experiment in all cases: inhibition of tumour cell growth, NCI panel, 48 h
[1] = test system: 786-0
[2] = test system: A498
[3] = test system: A549
[4] = test system: EKVX
[5] = test system: HL-60
[6] = test system: HOP-92
[7] = test system: Hs-578T
[8] = test system: KM12
[9] = test system: LXFL 529
[10] = test system: M14
[11] = test system: MDA-MB-435
[12] = test system: NCI-H522
[13] = test system: RXF 393
[14] = test system: SF-539
[15] = test system: SK-MEL-28
[16] = test system: SK-OV-3
[17] = test system: SNB-75
[18] = test system: SW-620
[19] = test system: TK-10
[20] = test system: UO-31

Measured: GI50

O=C1C(Br)=C(Br)C(=O)c2ccc(=O)ccc21
inactive: [1] 18.3 µM | [2] > 100 µM | [3] 70.6 µM | [4] 36.6 µM | [5] 8.47 µM | [6] 18.5 µM | [7] 26.4 µM | [8] 46.8 µM | [9] 17.7 µM | [10] 17.9 µM | [11] 18.7 µM | [12] 2.67 µM | [13] 19.2 µM | [14] 24.7 µM | [15] 27 µM | [16] > 100 µM | [17] 57.9 µM | [18] 20.8 µM | [19] 18.7 µM | [20] 17.6 µM

CN(C)NC(=O)/C(=C/c1ccc(Cl)cc1)NC(=O)c1ccccc1
inactive: [1] > 100 µM | [2] > 100 µM | [3] > 100 µM | [4] > 100 µM | [5] 34.4 µM | [6] > 100 µM | [8] > 100 µM | [9] > 100 µM | [10] > 100 µM | [12] 40.7 µM | [13] > 100 µM | [14] > 100 µM | [15] > 100 µM | [16] > 100 µM | [17] 78 µM | [19] > 100 µM | [20] 57.1 µM

NCCCC(N/C=C1/N=C(c2ccccc2)OC1=O)C(=O)O (stereo unspecified)
inactive: [1] > 100 µM | [2] > 100 µM | [3] > 100 µM | [4] > 100 µM | [5] 63.4 µM | [6] > 100 µM | [9] 96.8 µM | [10] > 100 µM | [12] 40.8 µM | [13] > 100 µM | [14] > 100 µM | [15] > 100 µM | [16] > 100 µM | [17] > 100 µM | [18] > 100 µM | [19] > 100 µM | [20] > 100 µM

c1ccc2c(c1)nnn2CNc1ccc(N2CCCCC2)cc1
inactive: [1] > 100 µM | [2] > 100 µM | [3] > 100 µM | [4] > 100 µM | [5] 45.3 µM | [6] > 100 µM | [8] > 100 µM | [9] > 100 µM | [10] > 100 µM | [12] > 100 µM | [13] > 100 µM | [14] > 100 µM | [15] > 100 µM | [16] > 100 µM | [17] > 100 µM | [18] > 100 µM | [19] > 100 µM | [20] > 100 µM

COC(=O)C(C(=O)C(=O)Nc1ccc(C)cc1C)c1nc2ccc([N+](=O)[O-])cc2nc1O (stereo unspecified)
inactive: [1] > 100 µM | [2] > 100 µM | [3] > 100 µM | [4] > 100 µM | [5] 34.8 µM | [6] > 100 µM | [8] > 100 µM | [9] 56.8 µM | [10] > 100 µM | [12] 60.3 µM | [13] > 100 µM | [14] > 100 µM | [15] > 100 µM | [16] > 100 µM | [17] > 100 µM | [18] > 100 µM | [19] > 100 µM | [20] 76.2 µM

Cc1cc(N(CCC#N)CCC#N)ccc1/C=C1\N=C(c2cc([N+](=O)[O-])ccc2Cl)N(NC(=O)c2ccc(/N=C\c3ccc(N(CCC#N)S(C)(=O)=O)cc3C)cc2)C1=O
inactive: [1] > 100 µM | [2] > 100 µM | [3] > 100 µM | [4] > 100 µM | [5] 61.4 µM | [6] 98.9 µM | [8] > 100 µM | [9] 64.3 µM | [10] 37.9 µM | [12] > 100 µM | [13] > 100 µM | [14] > 100 µM | [15] > 100 µM | [16] > 100 µM | [17] > 100 µM | [18] > 100 µM | [19] > 100 µM | [20] > 100 µM

O=C(/C=C/c1ccc(OCCSCCCCCCCCCCSCCOc2ccc(/C=C/C(=O)c3ccc(Cl)cc3)cc2)cc1)c1ccc(Cl)cc1
inactive: [1] 75.3 µM | [2] > 100 µM | [3] > 100 µM | [4] > 100 µM | [5] > 100 µM | [6] 47.4 µM | [7] > 78.5 µM | [8] > 100 µM | [9] > 100 µM | [10] > 100 µM | [11] > 100 µM | [12] > 89.3 µM | [13] 43.6 µM | [14] 45.6 µM | [15] > 100 µM | [16] 65.5 µM | [17] 30.8 µM | [18] > 100 µM | [19] > 100 µM | [20] > 100 µM

CN1CC[C@]2(C)c3cc(O)ccc3CC3CCCC1C32C (stereo partly specified)
inactive: [1] > 100 µM | [2] > 100 µM | [3] > 100 µM | [4] > 100 µM | [5] > 100 µM | [6] > 100 µM | [8] > 100 µM | [9] > 100 µM | [10] > 100 µM | [12] > 100 µM | [13] > 100 µM | [14] > 100 µM | [15] > 100 µM | [16] > 100 µM | [17] 92 µM | [18] > 100 µM | [19] > 100 µM | [20] 89.7 µM
